According to patent US12234257B2, “Triterpene saponin derivative and use thereof” (KOREA INSTITUTE OF SCIENCE AND TECHNOLOGY, priority 2020, dated 2025):
Entries after “also recorded” stand apart in the source; their conditions may differ.

Experiments:
Type in all cases: cell-based, human
[1] = system: GFP-RFP-LC3-II puncta in SH-SY5Y cells; assay: Tandem fluorescent protein quenching assay (RFP-GFP-LC3); settings: transfected SH-SY5Y cells, AKNS-2 10 μM + Baf 100 nM
Method: SH-SY5Y cells were cultured in a 24-well plate at a density of 8×10^4 cells/well on a glass cover slip. Transfection was performed in accordance with guidelines of the autophagy tandem RFP-GFP-LC3B kit. After culturing the cells for 24 hours, the cells were treated with an LC3B reagent. After the transfected cells were incubated for 24 hours, 50 nM Wart or 100 nM Baf was administered thereto, and then AKNS-2 (10 μM) was added thereto. The cells were immobilized with 4% paraformaldehyde and permeabilized with 0.1% Triton X100. Nuclei thereof were stained with 4,6-diamidino-2-phenylindole (DAPI, 25 μg/mL). Fluorescent signals were detected using a confocal microscope (Leica, Solms, Germany).

[2] = system: autophagy-related protein markers (LC3-II, p62, p-AMPK, p-Erk, p-ULK, p-mTOR) in SH-SY5Y cells; assay: Western blot of autophagy-related protein markers in SH-SY5Y cells
Method: (§1) Human neuroblastoma (SH-SY5Y) cells were purchased from the American Type Culture Collection (Manassas, Va., USA) and cultured in DMEM supplemented with 10% heat-inactivated FBS and 1% penicillin/streptomycin. The SH-SY5Y cells were cultured at 37° C. in a humid atmosphere containing 5% CO2. […] The SH-SY5Y cells were transfected with AMPK siRNA and then administered with AKNS-2 at 36 hours after siRNA transfection. […] After 24 hours from treatment with the samples, the SH-SY5Y cells were recovered and used for subsequent analysis. At 24 hours after drug treatment, the culture medium was removed from the 6-well plate, and the cells were gently washed once with cold saline. Subsequently, 1 mL of cold saline was added to each well, and cells attached to the bottom were floated by rubbing the bottom with a 1 mL pipette. The suspension was collected in a 1.5 mL tube and centrifuged at 4° C. at 13000×g for 5 minutes. After removing a supernatant, 50 μL of a RIPA lysis buffer including a protease inhibitor cocktail (Roche, Mannheim, Germany) and purchased from Cell Signaling Technology (Danvers, Mass., USA) was added to the cell pellet. After shaking the mixture at 4° C. for 30 minutes, the obtained cells were centrifuged at 4° C. at 13000×g for 20 minutes. A supernatant was collected therefrom, and a concentration of proteins was measured using a standard curve constructed using BSA by the Bradford method. Then, the supernatant was diluted with a loading buffer and heated at 99° C. for 5 minutes. Resultant cells were used in a subsequent western blot analysis. Protein markers contained in lysates of the SH-SY5Y cells and brain tissue of the mice (SNpc and ST) were measured by western blot analysis. Briefly, after determining a concentration, a protein sample (20 μg) was separated by 8%, 10%, or 15% sodium dodecyl sulfate-polyacrylamide gel electrophoresis (SDS-PAGE). Then, proteins separated on the gel were transferred to a polyvinylidene fluoride (PVDF) membrane for 45 minutes using a Trans-Blot Turbo Transfer System (Bio-Rad, USA). […] The membrane was further incubated with monoclonal primary antibodies derived from rabbits (anti-GAPDH, anti-AMPK, anti-p-AMPK, anti-ULK, anti-p-ULK555, anti-Erk, anti-p-Erk, anti-mTOR, anti-p-mTOR, anti-LC3B, anti-TH, and anti-α-synuclein antibodies). The primary antibodies were diluted in a blocking buffer at a ratio of 1:1000 and incubated overnight at 4° C. On the second day, the membrane was washed with TBST three times (10 minutes each) and incubated at room temperature in a horseradish peroxidase-conjugated goat anti-rabbit IgG secondary antibody (diluted in a blocking buffer at a ratio of 1:2000). After incubating in the secondary antibody for 1 hour, the membrane was washed for 30 minutes. The protein blots on the membrane were developed using an ECL detection kit and visualized using an LAS-4000 mini system (Fujifilm, Japan). The intensity of the protein blots was quantified using Multi Gauge software (Fujifilm, Japan).

[3] = system: LC3, p62, TH and α-synuclein in SH-SY5Y cells; assay: Western blot of LC3, p62, TH and α-synuclein in MPP^+-treated SH-SY5Y cells (in vitro PD model)
Method: as §1

[4] = system: SH-SY5Y cells; assay: MTT assay to measure cell viability
Method: Cell viability was detected using an MTT assay kit (Z-Cytox). Briefly, the SH-SY5Y cells were seeded on a 96-well plate at a density of 2×10^4 cells/well with 100 μL of a culture medium. After 24 hours, the SH-SY5Y cells were treated with AKNS-2 and/or MPP^+ having desired concentrations to identify cytotoxicity of AKNS-2 and MPP^+. After 24 hours, 10 μL of the MTT reagent was added to each well of the 96-well plate including the cells. Absorbance was measured at 450 nm using a microplate spectrophotometer (BioTek, Vt., USA). […] The next day, absorbance was measured at 1 hour after adding the MTT reagent thereto.

[5] = 3-MA 5 mM 30 minutes before AKNS-2 10 μM
[6] = 10 μM U0126 30 minutes before AKNS-2 (5 μM and 10 μM)

## CO/C1=C\C(C)=C\[C@@H](C)[C@@H](O)[C@@H](C)C/C(C)=C/C=C/[C@H](OC)[C@@H]([C@@H](C)[C@@H](O)[C@H](C)[C@@]2(O)C[C@@H](O)[C@H](C)[C@@H](C(C)C)O2)OC1=O [Baf, bafilomycin A1]
[1]
  AKNS-2-enhanced accumulation of LC3-II puncta with bafilomycin A1: increased green fluorescence and decreased red fluorescence
[1]; listed as bafilomycin A1
  AKNS-2-enhanced accumulation of LC3-II puncta with bafilomycin A1: AKNS-2-induced autophagy is inhibited

## Cn1cnc(N)c2ncnc1-2 [Compound 3-MA, 3-methyladenine, reference compound]
[2]; [5]
  AKNS-2-decreased p62 expression in presence of 3-MA: increases p62 expression; also recorded: remarkably blocked the inhibitory effects of AKNS-2 on the expression level of p62
  AKNS-2-up-regulated LC3-II expression in presence of 3-MA: decreases LC3-II expression; also recorded: the increased expression was significantly decreased
[3]; 3-MA + AKNS-2 + MPP^+
  AKNS-2 effect on TH expression in presence of 3-MA: advantageous effects of AKNS-2 were canceled out
[3]; 3-MA vs group co-administered with AKNS-2 and MPP^+
  expression of LC3-II with 3-MA: significantly inhibited the expression of LC3-II

## N#CC(=C(/N)Sc1ccccc1N)/C(C#N)=C(\N)Sc1ccccc1N [Compound U0126, reference compound]
[2]; [6]
  AKNS-2-induced LC3-II expression in presence of U0126: a significant decrease was observed in the expression of LC3-II; also recorded: blocked the effects of AKNS-2 (5 μM and 10 μM) on increasing the expression of LC3-II
  AKNS-2-inhibited p-mTOR expression in presence of U0126: considerably restored
[2]; 10 μM U0126 + AKNS-2 10 μM
  AKNS-2-increased p-ULK expression in presence of U0126: canceled out the effects of AKNS-2 (10 μM) on an increase in expression of p-ULK
[3]; 10 μM U0126 + AKNS-2 + 2 mM MPP^+
  AKNS-2 effect on α-synuclein in presence of U0126: the protective effects were blocked
[3]; 10 μM U0126 before AKNS-2 and 2 mM MPP^+
  AKNS-2 effect on TH expression in presence of U0126: the effects of AKNS-2 on increasing the expression of TH were inhibited
[4]; 10 μM U0126 + AKNS-2 (5 μM and 10 μM) + 2 mM MPP^+
  protective effect of AKNS-2 on cell viability in presence of U0126: cancels out protective effects of AKNS-2 on cell viability; also recorded: such enhancement was canceled out

## C[n+]1ccc(-c2ccccc2)cc1.[I-] [MPP^+, 1-methyl-4-phenylpyridinium (MPP^+) iodide, reference compound]
[4]; MPP^+ alone, 2 mM
  cell viability (MTT): significantly decreased cell viability
